Results published in patent EP0386667B1, “6-Amino-6-desoxyfumagillols, production and use thereof” (Takeda Chemical Industries, Ltd., priority 1989, dated 1990).
≈ marks a conversion by molar mass, not a printed value.

Legend:
[1] = system: bFGF-induced angiogenesis; test: angiogenesis inhibitory activity by the rat cornea micropocket method; format: in vivo, Sprague-Dawley rats; settings: number of rats on which angiogenesis inhibitory activity was observed relative to the number of rats tested, sample pellet 20 µg beside bFGF (250 ng) pellet in cornea, observed after 10 days; for responders at 20 µg/pellet: Rattus norvegicus, 240 h, read-out: Inhibitory Rate (converted)
Procedure: The object compounds (I) obtained in the Working Examples given below were evaluated for angiogenesis inhibitory activity by the rat cornea micropocket method.
Essentially the same method of Gimbrone et al. [J. National Cancer Institute, 52, 413-419 (1974)] was followed. Thus, adult male Sprague-Dawley rats 11 to 16 week old) were anesthetized with nembutal and locally anesthetized by instillation of xylocaine eyedrops onto the eyeball. The cornea was incised to a length of about 2 mm at about 2 mm inside from the corneal circumference by means of an injection needle, and a sustained release pellet containing basic fibroblast growth growth factor (bFGF; bovine brain-derived, purified product; R & D Inc.) and a sustained release pellet containing the test sample were inserted side by side into the incision so that the bFGF pellet was located on the central side in the cornea. In the control group, the bFGF pellet and a sample-free pellet were inserted into the cornea. After 10 days, the cornea was observed under a stereoscopic microscope.
The sustained release pellets were prepared in the following manner. An ethylene-vinyl acetate copolymer (Takeda Chemical Industries, Ltd.) was dissolved in dichloromethane to a concentration of 8%. A 3 µl portion of the solution was air-dried on a glass dish, an aqueous solution of bFGF (250 ng) was then placed thereon and air-dried and, finally 3 µl of the above ethylene-vinyl acetate copolymer solution was placed further thereon and air-dried to give a sandwich sheet. This sandwich sheet was made round into a bFGF pellet. The test sample pellets were prepared by dissolving each sample in ethanol in a concentration of 20 µg/2 µl, mixing the solution with 6 µl of an ethylene-vinyl acetate copolymer solution, air-drying the mixed solution in a glass dish and making the thus-obtained sheet round.
Incidentally, in the Table 1 below, the inhibitory rate means the number of rats on which angiogenesis inhibitory activity was observed relative to the number of rats tested.

[2] = system: Human umbilical vein endothelial cells; test: inhibition of human umbilical vein endothelial cell growth (MTT); format: cell-based; settings: rFGF 2 ng/ml, 5-day culture, concentration giving 50% OD value of control; for IC50: Homo sapiens, Endothelial cell, 120 h, read-out: IC₅₀
Procedure: Human umbilical vein endothelial cells were isolated by perfusion of an umbilical vein with a trypsin-containing medium. The cells were cultured in sequence in GIT medium (Nihon Pharm. In.) supplemented with 2.5% fetal bovine serum and 2.0 ng/ml or recombinant human fibroblast growth factor (hereinafter simply referred to rFGF, prepared at Biotechnology Research Laboratories, Takeda Chemical Industries, Ltd.).
A suspension of human vein endothelial cells at the cell density of 2 x 10³ (100 µl) was seeded on 96-well incubation plate (Nunc, 1-67008), and incubation was conducted in a gas-controlled thermostat vessel. […] After 5-day culture, the medium was removed by suction, 100 µl of 1 mg/ml of MTT solution [3-(4,5-dimethyl-2-thiazolyl)-2,5-diphenyl-2H-tetrazolium bromide was dissolved in the medium] was added and kept warming for 4 hours. Then, 100 µl of a 10% SDS solution (aqueous solution of sodium dodecyl sulfate) was added, and the mixture was kept warming for 5-6 hours. The cells and MTT pigment were solubilized, and the optical density ([…]) was measured using a spectrophotometer. The OD value of the control group to which no test sample was added was set as 100%, and the activity of each test sample for inhibiting endothelial cell growth was shown in Table 2 by the concentration of the test compound giving 50% OD value, i.e. IC₅₀ value.

Compound | Inhibitory Rate [1] | IC₅₀ [2] | IC50 [2] | responders at 20 µg/pellet [1]
6β-(N′-chloroacetylureido)-4′,5′-dihydro-6-desoxyfumagillol [Example 14] | 5/5 | 0.14 ng/mL | – | –
CO[C@@H]1[C@H](N)CC[C@]2(CO2)[C@H]1[C@@]1(C)O[C@@H]1CC=C(C)C [Example 1, 6α-Amino-desoxyfumagillol] | – | – | 7.92 ng/mL (≈ 28.1 nM) | –
CO[C@@H]1[C@H](Nc2ccccc2)CC[C@]2(CO2)[C@H]1[C@@]1(C)O[C@@H]1CC=C(C)C [Example 2, 6α-Phenylamino-6-desoxyfumagillol] | – | – | – | 62.5%
CO[C@@H]1[C@H](N(C)C(C)=O)CC[C@]2(CO2)[C@H]1[C@@]1(C)O[C@@H]1CC=C(C)C [Example 3, 6α-(Acetyl)methylamino-6-desoxyfumagillol] | – | – | 3.21 ng/mL (≈ 9.51 nM) | 50%
CO[C@@H]1[C@H](NC(C)=O)CC[C@]2(CO2)[C@H]1[C@@]1(C)O[C@@H]1CC=C(C)C [Example 5, 6α-Acetylamino-6-desoxyfumagillol] | – | – | 0.06 ng/mL (≈ 0.186 nM) | 57.1%
CO[C@@H]1[C@H](NS(=O)(=O)c2ccc(C)cc2)CC[C@]2(CO2)[C@H]1[C@@]1(C)O[C@@H]1CC=C(C)C [Example 6, 6α-(p-Toluenesulfonylamino)-6-desoxyfumagillol] | – | – | 7.04 ng/mL (≈ 16.2 nM) | 75%
CO[C@@H]1[C@H](NC(=O)OCC(C)C)CC[C@]2(CO2)[C@H]1[C@@]1(C)O[C@@H]1CC=C(C)C [Example 7, 6α-(Isobutyloxy-carbonylamino)-6-desoxyfumagillol] | – | – | 0.17 ng/mL (≈ 0.446 nM) | 100%
CO[C@@H]1[C@H](NC(=O)c2ccccc2)CC[C@]2(CO2)[C@H]1[C@@]1(C)O[C@@H]1CC=C(C)C [Example 8, 6α-Benzoylamino-6-desoxyfumagillol] | – | – | 0.2 ng/mL (≈ 0.519 nM) | 85.7%
CO[C@@H]1[C@H](NC(=O)NC(=O)CCl)CC[C@]2(CO2)[C@H]1[C@@]1(C)O[C@@H]1CC=C(C)C [Example 9, 6α-(N′-chloroacetylureido)-6-desoxyfumagillol] | – | – | 0.057 ng/mL (≈ 0.142 nM) | 100%
CO[C@@H]1[C@H](NC(=S)Nc2cccc3ccccc23)CC[C@]2(CO2)[C@H]1[C@@]1(C)O[C@@H]1CC=C(C)C [Example 10, 6α-[N′-(1-naphthyl)thioureido]-6-desoxyfumagillol] | – | – | 8.13 ng/mL (≈ 17.4 nM) | 40%
CO[C@@H]1[C@H](NC(=O)Nc2cccc3ccccc23)CC[C@]2(CO2)[C@H]1[C@@]1(C)O[C@@H]1CC=C(C)C [Example 11, 6α-[N′-(1-naphthyl)ureido]-6-desoxyfumagillol] | – | – | 0.34 ng/mL (≈ 0.755 nM) | 100%
CO[C@@H]1[C@H](NC(=O)NCCCl)CC[C@]2(CO2)[C@H]1[C@@]1(C)O[C@@H]1CC=C(C)C [Example 12, 6α-[N′-(2-chloroethyl)ureido]-6-desoxyfumagillol] | – | – | 1.16 ng/mL (≈ 3 nM) | –
CO[C@@H]1[C@H](NC(N)=O)CC[C@]2(CO2)[C@H]1[C@@]1(C)O[C@@H]1CC=C(C)C [Example 13, 6α-Ureido-6-desoxyfumagillol] | – | – | 0.1 ng/mL (≈ 0.308 nM) | 100%
CO[C@@H]1[C@@H](N)CC[C@]2(CO2)[C@H]1[C@@]1(C)O[C@@H]1CC=C(C)C [Example 16, 6β-Amino-6-desoxyfumagillol] | – | – | 9.49 ng/mL (≈ 33.7 nM) | 50%
CO[C@@H]1[C@@H](N2CCCC2)CC[C@]2(CO2)[C@H]1[C@@]1(C)O[C@@H]1CC=C(C)C [Example 19, 6β-Pyrrolidino-6-desoxyfumagillol] | – | – | – | 66.7%
CO[C@H]1[C@H]([C@@]2(C)O[C@@H]2CC=C(C)C)[C@]2(CC[C@@H]1[N+]1(C)CCCC1)CO2 [Example 20, 6β-Pyrrolidino-6-desoxyfumagillol methyl iodide] | – | – | – | 42.9%
